The text below walks through data of patent US20170333391A1, “METHOD FOR DELAYING THE ONSET OF PULMONARY FIBROSIS OR TREATING PULMONARY FIBROSIS” (EVERFRONT BIOTECH INC., priority 2016, published 2017).

Assay [1] has as its system Rat type II alveolar cell, L2 cell line. As to the kind of experiment: Cell survival test (MTT analysis) under H2O2 oxidative stress. Format: cell-based. The following applies: 24 hours, control group = 100%. On the procedure:
The rat type II alveolar cell, L2 cell line (ATCC® CCL149™) were seeded into a 96-well plate at a density of 5×10^3 cells/well, 48 wells in total (separated into a control group and five experimental groups, 8 wells for each group). The cells were cultured until the next day, and then the mediums were removed. Each group was respectively treated under the following conditions to conduct follow-up experiments:
(1) Control group: cells were cultured in a F-12K medium (Kaighn's Modification of Ham's F-12 Medium, ATCC® 30-2004™) for 24 hours;
(2) Group 1: cells were cultured in a F-12K medium containing H2O2 (0.1 mM) for 24 hours;
(3) Group 2: cells were cultured in a F-12K medium containing H2O2 (0.1 mM) and compound (1) (5 μg/ml) for 24 hours;
(4) Group 3: cells were cultured in a F-12K medium containing H2O2 (0.1 mM) and N-acetylcysteine (NAC) (2 mM) for 24 hours;
(5) Group 4: cells were cultured in a F-12K medium containing H2O2 (0.2 mM) and compound (1) (5 μg/ml) for 24 hours; and
(6) Group 5: cells were cultured in a F-12K medium containing H2O2 (0.2 mM) and NAC (2 mM) for 24 hours.
The mediums were removed after culturing was complete, and then each group was respectively treated under the following conditions: F-12K mediums containing 10% of 3-(4,5-Dimethylthiazol-2-yl)-2,5-diphenyltetrazolium bromide (MTT) were added into each well, and cultured for 1 hour. Thereafter, the mediums were removed, and a suitable amount of dimethyl sulfoxide (DMSO) was added into the wells. An Enzyme-Linked ImmunoSorbent Assay reader (ELISA reader) was then used for detecting the absorbance of each group at a wavelength of 595 nm (OD595nm). The average value of each group was respectively calculated (n=8), and then the result of the control group served as the basis for calculating the relative survival rates of the other groups.

The test system of a further assay is type I collagen. The experiment in a line: Type I collagen expression in TGF-β1-induced NHLF, western blotting (2-2). Format: cell-based, human. The following applies: TGF-β1-only control group = 1. As to the method:
(§1) Normal Human lung fibroblasts (NHLF) were seeded into 6 cm culture dishes at a density of 2×10^5 cells/dish, comprising a control group and six experimental groups (7 dishes in total). The cells were cultured until the next day, and then the mediums were removed. Each group was respectively treated under the following conditions to conduct follow-up experiments: • (1) Positive control group: cells were cultured in a FGM-2 medium containing 1% serum and TGF-β1 (5 ng/ml) for 36 hours; • (2) Group I: cells were firstly cultured in a FGM-2 medium containing 1% serum and TGF-β1 (5 ng/ml) for 12 hours, and then compound (1) was added into the medium to provide a final concentration of 15 μg/ml; thereafter, the cells were cultured for another 24 hours; • (3) Group II: cells were firstly cultured in a FGM-2 medium containing 1% serum and TGF-β1 (5 ng/ml) for 12 hours, and then compound (1) was added into the medium to provide a final concentration of 25 μg/ml; thereafter, the cells were cultured for another 24 hours; • (4) Group III: cells were firstly cultured in a FGM-2 medium containing 1% serum and TGF-β1 (5 ng/ml) for 12 hours, and then compound (1) was added into the medium to provide a final concentration of 35 μg/ml; thereafter, the cells were cultured for another 24 hours; • (5) Group IV: cells were firstly cultured in a FGM-2 medium containing 1% serum and TGF-β1 (5 ng/ml) for 12 hours, and then the Pirfenidone was added into the medium to provide a final concentration of 100 μg/ml; thereafter, the cells were cultured for another 24 hours; • (6) Group V: cells were firstly cultured in a FGM-2 medium containing 1% serum and TGF-β1 (5 ng/ml) for 12 hours, and then the Pirfenidone was added into the medium to provide a final concentration of 250 μg/ml; thereafter, the cells were cultured for another 24 hours; and • (7) Group VI: cells were firstly cultured in a FGM-2 medium containing 1% serum and TGF-β1 (5 ng/ml) for 12 hours, and then the Pirfenidone was added into the medium to provide a final concentration of 500 μg/ml; thereafter, the cells were cultured for another 24 hours.
(§2) Thereafter, the proteins in the cells of each group were extracted, and the expressions of type I collagen, BMP-7 protein and TGF-β protein in the NHLF cells of each group were measured with western blotting. The results of the control group served as the basis for calculating the relative expression levels of the other groups.
(In general: A western blot detects proteins with antibodies after separation by electrophoresis.)

In assay [2] the test system is TGF-β protein. The experiment in a line: TGF-β protein expression in TGF-β1-induced NHLF, western blotting (2-2). It is filed as cell-based, human. The following applies: TGF-β1-only control group = 1. As to the method: as §1, §2
Assay [3] deals with BMP-7 protein. As to the kind of experiment: BMP-7 protein expression in TGF-β1-induced NHLF, western blotting (2-2). Format: cell-based, human. The following applies: TGF-β1-only control group = 1. On the procedure: as §1, §2
Another assay deals with p-smad2/3 protein. The experiment in a line: p-smad2/3 protein expression in TGF-β1-induced NHLF, western blotting (Example 4). It is filed as cell-based, human. Conditions: uninduced control = 1, TGF-β1-only group A = 1.42. As to the method: (§3) Normal Human lung fibroblasts (NHLF) were seeded into 6 cm culture dishes at a density of 2×10^5 cells/dish, comprising a control group and five experimental groups (6 dishes in total). The cells were cultured until the next day, and then the mediums were removed. Each group was respectively treated under the following conditions to conduct follow-up experiments: • (1) Control group: cells were cultured in a FGM-2 medium containing 1% serum for 36 hours; • (2) Group A: cells were cultured in a FGM-2 medium containing 1% serum and TGF-β1 (5 ng/ml) for 36 hours; • (3) Group B: cells were firstly cultured in a FGM-2 medium containing 1% serum and TGF-β1 (5 ng/ml) for 12 hours, and then compound (1) was added into the medium to provide a final concentration of 15 μg/ml; thereafter, the cells were cultured for another 24 hours; • (4) Group C: cells were firstly cultured in a FGM-2 medium containing 1% serum and TGF-β1 (5 ng/ml) for 12 hours, and then compound (1) was added into the medium to provide a final concentration of 30 μg/ml; thereafter, the cells were cultured for another 24 hours; • (5) Group D: cells were firstly cultured in a FGM-2 medium containing 1% serum and TGF-β1 (5 ng/ml) for 12 hours, and then compound (2) was added into the medium to provide a final concentration of 100 μg/ml; thereafter, the cells were cultured for another 24 hours; and • (6) Group E: cells were firstly cultured in a FGM-2 medium containing 1% serum and TGF-β1 (5 ng/ml) for 12 hours, and then compound (2) was added into the medium to provide a final concentration of 200 μg/ml; thereafter, the cells were cultured for another 24 hours.
(§4) Thereafter, the proteins in the cells of each group were extracted, and the expressions of BMP-7 protein, TGF-β protein and p-smad2/3 protein in the NHLF cells of each group were measured with western blotting. The results of the control group served as the basis for calculating the relative expression levels of the other groups.

Assay [4] concerns TGF-β protein. The experiment in a line: TGF-β protein expression in TGF-β1-induced NHLF, western blotting (Example 4). The following applies: uninduced control = 1, TGF-β1-only group A = 1.75. Format: cell-based, human. As to the method: as §3, §4
Assay [5] has as its system BMP-7 protein. As to the kind of experiment: BMP-7 protein expression in TGF-β1-induced NHLF, western blotting (Example 4). It is filed as cell-based, human. Conditions: uninduced control = 1, TGF-β1-only group A = 0.19. As to the method:
as §3, §4

[6] abbreviates: Group IV: TGF-β1 5 ng/ml 12 h, then Pirfenidone 100 μg/ml 24 h.
Setting [7] is: Group V: TGF-β1 5 ng/ml 12 h, then Pirfenidone 250 μg/ml 24 h.
The mark [8] stands for this setting: Group VI: TGF-β1 5 ng/ml 12 h, then Pirfenidone 500 μg/ml 24 h.
[9] abbreviates: Group D: TGF-β1 5 ng/ml 12 h, then compound (2) 100 μg/ml 24 h.
Setting [10] is: Group E: TGF-β1 5 ng/ml 12 h, then compound (2) 200 μg/ml 24 h.

Regarding `CC(=O)N[C@@H](CS)C(=O)O` [NAC, N-acetylcysteine, reference compound], the Relative survival rate amounted to 101.9% in assay [1] (Group 3: H2O2 0.1 mM + NAC 2 mM, H2O2 0.1 mM alone = 38.9%) and 83.1% in assay [1] (Group 5: H2O2 0.2 mM + NAC 2 mM).

For the compound `Cc1ccc(=O)n(-c2ccccc2)c1` [Pirfenidone, reference compound], the “Relative expression level (fold) Type I collagen” value in the assay on type I collagen (setting [6]) is given as 0.95 fold; with type I collagen (setting [7]), 0.57 fold; with type I collagen (setting [8]), 0.50 fold. The “Relative expression level (fold) TGF-β protein” value amounted to 0.67 fold in the assay on TGF-β protein [2] (setting [6]), 0.64 fold in the assay with TGF-β protein [2] (setting [7]) and 0.67 fold in the assay on TGF-β protein [2] (setting [8]). The “Relative expression level (fold) BMP-7 protein” value in the assay on BMP-7 protein [3] (setting [6]) was 1.52 fold; in the assay with BMP-7 protein [3] (setting [7]), 1.43 fold; in the assay on BMP-7 protein [3] (setting [8]), 1.34 fold.

In the case of `CCCCC(=O)c1ccccc1C(=O)O` [compound (2)], the “Relative expression level (fold) p-smad2/3 protein” value in the assay on p-smad2/3 protein (setting [9]) stood at 1.12 fold; in the assay on p-smad2/3 protein (setting [10]) it was 1.05 fold. Besides, the “Relative expression level (fold) TGF-β protein” value was found to be 0.46 fold in the assay with TGF-β protein [4] (setting [9]) and 0.29 fold with TGF-β protein [4] (setting [10]). Besides, the entries for the “Relative expression level (fold) BMP-7 protein” value in the assay with BMP-7 protein [5] (setting [9]) and in the assay with BMP-7 protein [5] (setting [10]) were 0.11 fold and 0.08 fold, respectively.
